One data set has as its target EGFR WT (Homo sapiens, UniProt P00533). The data set can be described thus: Kinase assay (mobility shift), EGFR wildtype. It counts as biochemical. To be noted: top concentration 300 nM. Here is the method:
(§1) Test 1 Kinase Assay for EGFR Del19/T790M/C797S and EGFR Wildtype
(§2) Enzyme reaction protocol are as follows:
(§3) 1. Preparing 1* Kinase buffer as followed.
(§4) 2. Preparing Compound Concentration Gradient: Compounds were tested at a concentration of 300 nM, diluted to 100-fold final concentration in 100% DMSO solution in 96-well plates, and compounds were diluted 3 times with Precision, 10 concentrations. Each concentration of the compound was then further diluted to a 5-fold final concentration of the intermediate dilution solution using 1* Kinase buffer.
(§5) 3.5 μL of each of the prepared intermediate dilution compounds was separately added to the compound wells of the 384-well plate, and each concentration was tested for duplicate wells; 5 μL of 5% DMSO was added to the negative control wells and the positive control wells, respectively.
(§6) 4. 2.5-fold final concentration of the kinase solution was prepared using 1*Kinase buffer.
(§7) 5. Add 10 μL of 2.5-fold final concentration of kinase solution to the compound well and positive control well; add 10 μL of 1*Kinase buffer to the negative control well.
(§8) 6. Centrifuge at 1000 rpm for 30 seconds, shake the reaction plate and incubate for 10 minutes at room temperature.
(§9) 7. A mixed solution of 2.5 times the final concentration of ATP and Kinase substrate (5-FAM-EEPLYWSFPAKKK-CONH2) was prepared using 1*Kinase buffer.
(§10) 8. 10 μL of a 2.5-fold final concentration of a mixed solution of ATP and a substrate was added to initiate the reaction.
(§11) 9. Centrifuge the 384-well plate at 1000 rpm for 30 seconds, mix by shaking, and incubate at room temperature for the corresponding time.
(§12) 10. Add 30 μL of the stop solution to stop the kinase reaction, centrifuge at 1000 rpm for 30 seconds, and mix by shaking.
(§13) 11. Read the conversion rate with Caliper EZ Reader.
(§14) Convert conversion values to inhibition values:
(§15) Percent inhibition 32 (max-conversion)/(max-min)*100.
(§16) “max” stands for the mean value of the positive control well ratio; “min” stands for the mean value of the negative control well.
(§17) Fit the data in log(inhibitor) vs. response Variable slope of GraphPad Prism 5 to obtain IC50 values.
(§18) Equation used is: Y=Bottom+(Top-Bottom)/(1+(IC50/X)^HillSlope)

The nature of data set [1]: Pharmacokinetic assay, oral administration. Format: in vivo. Conditions: rat, male SD rats, plasma. The protocol:
Test 5 Pharmacokinetic Assay
Male SD rats, oral administration (intragastric administration), 3 in each group. Animals administered by gavage were fasted overnight before the experiment, and the fasting time was from at least 12 hours before administration to 4 hours after administration. The blood was collected using the orbital vein. Time of blood collection by oral administration: 15 min, 30 min, 1 h, 2 h, 4 h, 7 h, 24 h. The blood collection volume was 300 uL, and after anticoagulation with 2.0% EDTA, the blood was centrifuged at 4000 rpm for 5 min, and the blood plasma was taken for about 100 uL, and placed in −20° C. for examination. The plasma sample was analyzed using liquid chromatography tandem mass spectrometry (LC-MS/MS). Plasma concentration-time data for individual animals were analyzed using WinNonlin (V4.1, Pharsight) software with a non-compartmental model and the pharmacokinetic parameters of the test compounds were calculated.

Another data set has as its target EGFR L858R/T790M/C797S (Homo sapiens, UniProt P00533, C797S/L858R/T790M). The data set can be described thus: Kinase assay (mobility shift), EGFR L858R/T790M/C797S. It counts as biochemical.
Another data set concerns the target Ba/F3-Del19/T790M/C797S (Homo sapiens, UniProt P00533, T790M/C797S, cells depend on it, form not given). Briefly: Ba/F3-Del19/T790M/C797S cells proliferation assay (CellTiter Glo). It counts as cell-based. To be noted: cell proliferation, 72 h, read-out: Ba/F3-Del19/T790M/C797S IC50. An outline of the steps:
(§19)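 Ba/F3 cells carrying EGFR Del19/T790M/C797S or L858R/T790M/C797S seeded at 2000 cells/well and exposed 72 h at 37 °C to compound (1000 nM top, 3-fold series, 0.5% DMSO). Viability read by CellTiter-Glo luminescence; IC50 from four-parameter non-linear regression.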
In general terms: ATP-based viability assays read luminescence as a measure of living cells.

Another data set concerns the target EGFR Del19/T790M/C797S (Homo sapiens, UniProt P00533, T790M/C797S, form not given). Briefly: Kinase assay (mobility shift), EGFR Del19/T790M/C797S. Format: biochemical. Here is the method: as §1, §2, §3, §4, §5, §6, §7, §8, §9, §10, §11, §12, §13, §14, §15, §16, §17, §18
The target in a further data set is Ba/F3-L858R/T790M/C797S (Homo sapiens, UniProt P00533, T790M/C797S/L858R, cells depend on it). The data set can be described thus: Ba/F3-L858R/T790M/C797S cells proliferation assay (CellTiter Glo). It counts as cell-based. To be noted: cell proliferation, 72 h, read-out: Ba/F3-L858R/T790M/C797S IC50. An outline of the steps: as §19
Another data set concerns A431 (WT). Briefly: A431 cells proliferation assay (CellTiter Glo). It counts as cell-based. Conditions: Homo sapiens, A-431; cell proliferation, 72 h. In short, it runs like this: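 Wild-type A431 cells seeded at 5000/well in DMEM/10% FBS were exposed 72 h at 37° C to compound at 10000 nM top, 3-fold down to 1.5 nM, in 0.5% DMSO. Viability by CellTiter-Glo luminescence; IC50 from four-parameter nonlinear regression.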

Setting [2] is: p.o. 10 mg/kg, formulation 5% DMSO/5% Solutol/90% normal saline.
The mark [3] stands for this setting: p.o. 5 mg/kg, formulation differs per row.

pIC50: −log10 of the molar value. Where two headings read alike, the source gives them in different places.

Sequence of Ba/F3-Del19/T790M/C797S (P00533 with tags, fused parts or gaps DEL746-750/T790M/C797S, form open): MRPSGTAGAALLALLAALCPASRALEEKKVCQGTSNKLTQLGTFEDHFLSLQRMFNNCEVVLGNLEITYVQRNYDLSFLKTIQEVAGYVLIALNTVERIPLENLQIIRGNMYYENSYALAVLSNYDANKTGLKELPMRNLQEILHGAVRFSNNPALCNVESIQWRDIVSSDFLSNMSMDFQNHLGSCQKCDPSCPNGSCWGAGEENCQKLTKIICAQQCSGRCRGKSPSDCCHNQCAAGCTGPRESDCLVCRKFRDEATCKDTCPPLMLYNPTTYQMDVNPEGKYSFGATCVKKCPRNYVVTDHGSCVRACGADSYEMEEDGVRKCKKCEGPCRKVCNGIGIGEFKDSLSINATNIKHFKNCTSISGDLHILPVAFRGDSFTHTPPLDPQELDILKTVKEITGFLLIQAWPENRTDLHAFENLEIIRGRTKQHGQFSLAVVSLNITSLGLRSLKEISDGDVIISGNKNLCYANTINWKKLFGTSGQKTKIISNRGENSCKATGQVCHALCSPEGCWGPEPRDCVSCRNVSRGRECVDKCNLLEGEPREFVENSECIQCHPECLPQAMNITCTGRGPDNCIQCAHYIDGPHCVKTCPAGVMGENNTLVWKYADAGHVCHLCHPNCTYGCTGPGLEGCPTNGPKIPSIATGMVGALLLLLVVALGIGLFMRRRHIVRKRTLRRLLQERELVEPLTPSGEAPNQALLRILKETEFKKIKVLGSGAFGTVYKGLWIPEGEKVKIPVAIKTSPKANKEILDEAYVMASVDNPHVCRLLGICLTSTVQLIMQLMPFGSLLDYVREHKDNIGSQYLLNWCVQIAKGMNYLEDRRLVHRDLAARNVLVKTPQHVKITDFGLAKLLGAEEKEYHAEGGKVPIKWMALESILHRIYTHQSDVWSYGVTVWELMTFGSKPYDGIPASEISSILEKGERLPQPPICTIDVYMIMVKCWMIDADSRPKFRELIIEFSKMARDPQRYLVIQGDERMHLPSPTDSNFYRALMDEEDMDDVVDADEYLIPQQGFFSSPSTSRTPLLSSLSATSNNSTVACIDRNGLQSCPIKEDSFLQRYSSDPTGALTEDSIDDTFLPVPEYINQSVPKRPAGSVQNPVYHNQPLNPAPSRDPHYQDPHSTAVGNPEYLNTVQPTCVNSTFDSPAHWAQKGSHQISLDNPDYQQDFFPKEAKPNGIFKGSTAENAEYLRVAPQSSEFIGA
Sequence of EGFR Del19/T790M/C797S (P00533 with tags, fused parts or gaps DEL746-750/T790M/C797S, form open): as above
Sequence of EGFR WT (P00533 25-1210): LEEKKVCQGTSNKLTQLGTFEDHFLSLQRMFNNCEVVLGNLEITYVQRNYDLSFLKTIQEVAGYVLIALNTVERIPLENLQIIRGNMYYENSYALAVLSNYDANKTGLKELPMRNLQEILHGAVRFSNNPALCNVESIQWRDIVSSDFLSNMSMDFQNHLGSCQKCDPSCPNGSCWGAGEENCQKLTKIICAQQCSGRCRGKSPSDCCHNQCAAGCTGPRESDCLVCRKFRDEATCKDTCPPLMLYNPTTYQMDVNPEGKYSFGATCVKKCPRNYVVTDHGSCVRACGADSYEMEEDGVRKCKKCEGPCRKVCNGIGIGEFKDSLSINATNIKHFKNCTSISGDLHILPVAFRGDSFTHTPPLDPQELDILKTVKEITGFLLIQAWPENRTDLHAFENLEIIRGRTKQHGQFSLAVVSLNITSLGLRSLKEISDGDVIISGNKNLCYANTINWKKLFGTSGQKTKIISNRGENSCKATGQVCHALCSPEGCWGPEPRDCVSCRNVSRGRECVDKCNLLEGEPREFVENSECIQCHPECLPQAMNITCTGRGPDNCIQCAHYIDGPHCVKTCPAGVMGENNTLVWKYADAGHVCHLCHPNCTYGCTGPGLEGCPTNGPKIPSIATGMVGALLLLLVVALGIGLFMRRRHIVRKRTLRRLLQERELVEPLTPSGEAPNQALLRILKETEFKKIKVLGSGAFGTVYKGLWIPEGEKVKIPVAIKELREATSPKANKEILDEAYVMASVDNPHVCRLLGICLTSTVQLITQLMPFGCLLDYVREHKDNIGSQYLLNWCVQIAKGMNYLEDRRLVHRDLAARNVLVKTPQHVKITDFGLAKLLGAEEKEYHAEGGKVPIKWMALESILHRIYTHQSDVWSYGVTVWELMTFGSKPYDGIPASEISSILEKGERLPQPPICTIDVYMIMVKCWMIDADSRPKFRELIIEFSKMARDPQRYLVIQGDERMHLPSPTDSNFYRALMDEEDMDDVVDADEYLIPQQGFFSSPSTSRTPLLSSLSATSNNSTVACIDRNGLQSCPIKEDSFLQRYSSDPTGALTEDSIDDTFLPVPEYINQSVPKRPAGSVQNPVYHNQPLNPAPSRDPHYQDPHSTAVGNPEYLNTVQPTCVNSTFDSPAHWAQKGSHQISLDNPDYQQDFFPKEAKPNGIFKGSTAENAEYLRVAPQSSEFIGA
Sequence of EGFR L858R/T790M/C797S (P00533 25-1210 T790M/C797S/L858R): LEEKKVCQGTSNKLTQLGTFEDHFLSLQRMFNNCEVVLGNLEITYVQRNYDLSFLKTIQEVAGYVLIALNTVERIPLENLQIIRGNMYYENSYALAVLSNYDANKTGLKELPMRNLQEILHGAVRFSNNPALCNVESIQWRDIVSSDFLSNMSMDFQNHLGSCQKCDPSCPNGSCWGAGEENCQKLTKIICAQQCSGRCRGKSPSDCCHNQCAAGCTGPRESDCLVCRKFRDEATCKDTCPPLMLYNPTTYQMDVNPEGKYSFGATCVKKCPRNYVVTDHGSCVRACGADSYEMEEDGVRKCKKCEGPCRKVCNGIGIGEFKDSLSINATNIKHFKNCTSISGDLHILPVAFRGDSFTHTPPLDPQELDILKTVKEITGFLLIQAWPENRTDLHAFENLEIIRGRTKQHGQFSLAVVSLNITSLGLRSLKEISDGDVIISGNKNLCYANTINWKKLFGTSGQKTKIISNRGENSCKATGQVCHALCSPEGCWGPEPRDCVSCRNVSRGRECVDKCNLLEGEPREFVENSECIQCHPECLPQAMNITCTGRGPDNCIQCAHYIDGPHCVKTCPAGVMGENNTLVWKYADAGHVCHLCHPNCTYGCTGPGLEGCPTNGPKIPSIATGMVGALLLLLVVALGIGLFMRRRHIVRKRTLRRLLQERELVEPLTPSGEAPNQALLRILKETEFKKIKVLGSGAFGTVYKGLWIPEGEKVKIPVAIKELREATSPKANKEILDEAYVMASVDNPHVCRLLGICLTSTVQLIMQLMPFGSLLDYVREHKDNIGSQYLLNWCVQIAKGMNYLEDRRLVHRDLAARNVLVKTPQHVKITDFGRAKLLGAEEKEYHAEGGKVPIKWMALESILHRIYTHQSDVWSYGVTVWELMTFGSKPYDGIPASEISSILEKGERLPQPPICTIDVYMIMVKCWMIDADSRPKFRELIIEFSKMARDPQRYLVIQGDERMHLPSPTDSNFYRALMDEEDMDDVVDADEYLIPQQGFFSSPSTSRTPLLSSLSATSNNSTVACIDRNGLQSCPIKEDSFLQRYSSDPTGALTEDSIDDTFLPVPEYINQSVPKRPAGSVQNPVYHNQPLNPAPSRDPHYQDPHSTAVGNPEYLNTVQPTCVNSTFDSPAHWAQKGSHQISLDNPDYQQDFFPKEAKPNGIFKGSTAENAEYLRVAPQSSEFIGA

As for `Cc1cc(Nc2ncc(Cl)c(Nc3ccccc3P(C)(C)=O)n2)ccc1N1CC2(CCC(N(C)C)CC2)C1` [Example 1, (2-((5-chloro-2-((4-(7-(dimethylamino)-2-azaspiro[3.5]nonan-2-yl)-3-methylphenyl)amino)pyrimidin-4-yl)amino)phenyl)dimethylphosphine oxide], the negative-log IC50 (pIC50) (usually the negative decadic logarithm of the IC50, by convention in mol/L) on EGFR WT was 7.37; at EGFR L858R/T790M/C797S (class symbols), not below 8.70; at EGFR Del19/T790M/C797S it was 9.05; in the data set with A431 (WT) it was 7.31. Moreover, the AUC(0-t) (as a rule, exposure summed from dosing to a finite time, without extrapolation to infinity) in data set [1] (setting [2]) stood at 1540 ng·h/mL. Also, the highest level in data set [1] (setting [2]) (Cmax) was 141 ng/mL. Also, in data set [1] (setting [2]), the Tmax (in general, the time at which the peak concentration occurs) is 1.67 h. For the same molecule, the half-life (as a rule, the time needed for the level to fall by half in the phase considered) in data set [1] (setting [2]) is 6.53 h. Further, the GI50 at Ba/F3-Del19/T790M/C797S (numeric values) was found to be 5.8 nM; on Ba/F3-L858R/T790M/C797S (numeric values), 6 nM.
With `Cc1cc(Nc2ncc(Cl)c(Nc3ccccc3P(C)(C)=O)n2)ccc1N1CC2(CCC(NC3CC3)CC2)C1` [Example 4, (2-((5-chloro-2-((4-(7-(cyclopropylamino)-2-azaspiro[3.5]nonan-2-yl)-3-methylphenyl)amino)pyrimidin-4-yl)amino)phenyl)dimethylphosphine oxide], the pIC50 on EGFR WT was 7.68; on EGFR L858R/T790M/C797S (numeric values), 8.82; at EGFR Del19/T790M/C797S, 9.00; in the data set on A431 (WT), 7.57. The molecule further showed an AUC(0-t) in data set [1] (setting [3]) of 1020 ng·h/mL. Besides, in data set [1] (setting [3]), the concentration peaked (Cmax) at 71.3 ng/mL. Further, the Tmax in data set [1] (setting [3]) came out at 6 h. The molecule further had a half-life in data set [1] (setting [3]) of 6.27 h. Further, the GI50 at Ba/F3-Del19/T790M/C797S (class symbols) is not above 10 nM; at Ba/F3-L858R/T790M/C797S (class symbols), 10 to 50 nM.
For `CN(C)C1CC2(CCN(c3ccc(Nc4ncc(Cl)c(Nc5ccccc5P(C)(C)=O)n4)cc3Cl)CC2)C1` [Example 6, (2-((5-chloro-2-((3-chloro-4-(2-(dimethylamino)-7-azaspiro[3.5]nonan-7-yl)phenyl)amino)pyrimidin-4-yl)amino)phenyl)dimethylphosphine oxide], in data set [1] (setting [3]), the AUC(0-t) is 8810 ng·h/mL, the concentration peaked (Cmax) at 741 ng/mL, the time to peak (Tmax) was found to be 4 h and the half-life was 3 h. For the same molecule, the pIC50 on EGFR L858R/T790M/C797S (numeric values) is 8.89. Also, on Ba/F3-Del19/T790M/C797S (class symbols), the GI50 is 10 to 50 nM. Further, the pIC50 on EGFR Del19/T790M/C797S was 9.43. Further, at Ba/F3-L858R/T790M/C797S (class symbols), the GI50 lay in the range of 10 to 50 nM. Besides, the pIC50 with A431 (WT) was 7.35.
Turning to `CP(C)(=O)c1ccccc1Nc1nc(Nc2ccc(N3CCC4(CC3)CC(N)C4)c(Cl)c2)ncc1Cl` [Example 8, (2-((2-((4-(2-amino-7-azaspiro[3.5]nonan-7-yl)-3-chlorophenyl)amino)-5-chloropyrimidin-4-yl)amino)phenyl)dimethylphosphine oxide], in data set [1] (setting [3]), the AUC(0-t) came out at 2820 ng·h/mL; the Cmax – broadly, the highest concentration seen after dosing – turned out to be 388 ng/mL; the Tmax is 2.08 h; the half-life is 3.17 h. Moreover, the pIC50 at EGFR L858R/T790M/C797S (numeric values) is 8.80. In addition, on Ba/F3-Del19/T790M/C797S (numeric values), the GI50 was 21.5 nM. The pIC50 on EGFR Del19/T790M/C797S is 9.24. On Ba/F3-L858R/T790M/C797S (numeric values), the GI50 turned out to be 17.3 nM. The same molecule gave a pIC50 with A431 (WT) of 7.24.
As for `CN(C)C1CCC2(CC1)CN(c1ccc(Nc3ncc(Cl)c(Nc4ccccc4P(C)(C)=O)n3)cc1)C2` [Example 13, (2-((5-chloro-2-((4-(7-(dimethylamino)-2-azaspiro[3.5]nonan-2-yl)phenyl)amino)pyrimidin-4-yl)amino)phenyl)dimethylphosphine oxide], the pIC50 was 8.89 on EGFR L858R/T790M/C797S (numeric values), 9.22 at EGFR Del19/T790M/C797S and 7.38 with A431 (WT). In addition, the GI50 at Ba/F3-Del19/T790M/C797S (class symbols) and at Ba/F3-L858R/T790M/C797S (class symbols) was not above 10 nM throughout.
As for `Cc1cc(Nc2ncc(Cl)c(Nc3ccccc3P(C)(C)=O)n2)ccc1N1CCC2(CC1)CC(N)C2` [Example 14, (2-((2-((4-(2-amino-7-azaspiro[3.5]nonan-7-yl)-3-methylphenyl)amino)-5-chloropyrimidin-4-yl)amino)phenyl)dimethylphosphine oxide], the pIC50 on EGFR WT is 7.57; on EGFR L858R/T790M/C797S (numeric values), 8.92; on EGFR Del19/T790M/C797S, 9.51; in the data set with A431 (WT), 7.76. For the same molecule, the GI50 at Ba/F3-Del19/T790M/C797S (numeric values) turned out to be 13.2 nM; on Ba/F3-L858R/T790M/C797S (numeric values) it was 15.1 nM.
